Source: patent publication US20100196355A1, “Immunophilin Ligands and Methods for Modulating Immunophilin and Calcium Channel Activity” (Wyeth, priority 2007, published 2010)

Experiments:
[1] = test system: cortical neurons; assay: Neurite outgrowth in cortical neurons; type: cell-based, rat
Method: Cortical neurons were fixed using 2% paraformaldehyde for 5 min followed by 4% paraformaldehyde for 5 min. Cells were incubated in blocking solution (0.2% Triton-X+1.5% normal goat serum in PBS) followed by primary (anti-neuronal class III β-tubulin (TUJ1) (Covance Innovative Antibodies, Berkeley, Calif.) and secondary antibody (Alexa Fluor 488 goat anti-mouse) (Molecular Probes, Carlsbad, Calif.). Each step was performed at room temperature for 1 hr. Total neurite outgrowth for each condition was analyzed using the Neuronal Profiling Bioapplication on an ArrayScan HCS Reader (Cellomics, Pittsburgh, Pa.).
(§1) Briefly, cortical neuron cultures were prepared from embryonic day 15 (E15) rat embryos (Sprague-Dawley, Charles River Laboratories, Wilmington, Mass.). The embryos were collected, their brains were removed, and the cortices were dissected out in ice-cold phosphate-buffered saline (PBS) without Ca^2+ and Mg^2+. Dissected pieces of cortical tissue were pooled together and transferred to an enzymatic dissociation media containing 20 IU/ml papain in Earle's balanced salt solution (Worthington Biochemical, Freehold, N.J.) and incubated for 30 min at 37° C. After enzymatic dissociation, the papain solution was aspirated and the tissue mechanically triturated with a fire-polished Pasteur pipette in complete media [Neurobasal Medium with B-27 supplement (Gibco, Grand Island, N.Y.), 100 IU/ml penicillin, 100 μg/ml streptomycin, 3.3 μg/ml aphidicolin, 0.5 mM glutamate] containing 2,000 IU/ml DNase and 10-mg/ml ovomucoid protease inhibitor.

[2] = target: His6-tagged FKBP12 (Homo sapiens, UniProt P62942); assay: [3H]-FK506 binding on Ni-chelated FLASH plate
Method: (§2) Reactions were carried out in triplicate at 25° C. for 30 min. Kd were calculated using methods described by Carreras (Anal. Biochem. 298, 57-61 (2001)).

[3] = target: T1, FKBP52-rapamycin analogue I-Ca2+ channel β1 subunit complex (Mus musculus, UniProt P30416+Q8R3Z5); assay: Co-immunoprecipitation of complex from F11 cell lysate; type: binding, rat and mouse hybrid
T1 construct: endogenous in cells; host or cells: F11 cell lysate
Method: Anti-FKBP52 antibody was added at 1:200 dilution to each aliquot and incubated at 4° C. for 5 h. Protein A beads ([…]) were then added to precipitate the anti-FKBP52-antibody-associated complex. The proteins immunoprecipitated on the beads were washed with PBS buffer, separated on 4-20% SDS-PAGE gel, transferred to PVDF, and immunoblotted with anti-Ca^2+ channel β1 subunit antibody (1:500 dilution) to detect the β1 subunit.

[4] = target: T2, His6-CACNB1:TGG548TAA (Homo sapiens, UniProt Q02641); assay: Protein fluorescent quenching; type: binding; conditions: compound 1 μM, protein 0-8 μM
T2 construct: His6 (N); made in house
Description: (§3) The His6-CACNB1: […] were generated from pDEST17-CACNB1 using QuikChange site-directed mutagenesis kit (Stratagene, LaJolla, Calif.). The His6 tagged protein was purified on a Ni-NTA column (Qiagen, Valencia, Calif.). […] J. Biol. Chem. 281, 14961-14970 (2006).

[5] = test system: Ca2+ channel in F-11 cells; assay: Whole-cell patch clamp recording of Ca2+ currents in F-11 cells; type: cell-based, rat and mouse hybrid
Method: (§4) The whole-cell configuration of the patch-clamp technique was used to record calcium currents from the cells at room temperature using an EPC-9 amplifier (HEKA, Instrutech Corp.) with the acquisition and analysis program Pulse-PulseFit from HEKA (Lambrecht, Germany). Electrodes were fabricated using a P-87 puller (Sutter Instrument). […] The standard bath recording solution is Ca^2+ and Mg^2+ free HBSS (pH 7.4) containing 10 mM HEPES, 10 mM dextrose, and 4 mM BaCl2. Currents were filtered at 3 kHz, and the inward Ca^2+ currents were recorded from cells held at −90 mV with 10 mV depolarizing steps from −80 mV to 60 mV for 50 ms.

[6] = test system: cultured rat cortical neurons; assay: Neuronal survival assay (neurofilament ELISA); type: cell-based; conditions: cultured rat cortical neurons
Method: Cultures were fixed for 30 min with 4% paraformaldehyde at 37° C. Nonspecific binding was blocked by incubating with PBS containing 0.3% Triton X-100 and 5% fetal bovine serum (FBS) for 45 min. Cultures were then incubated overnight at 4° C. with an anti-neurofilament (200 kD) monoclonal antibody (1:1000, clone RT-97, Chemicon, Temecula, Calif.). After washing, a peroxidase-conjugated secondary antibody (1:1000, Vector Labs, Burlingame, Calif.) was applied for 2 h. After three washes, the peroxidase substrate K-BlueMax (Neogen, Lexington, Ky.; Young et al., 1999) was added to the cultures and incubated for 10 min on an orbital shaker. The peroxidase substrate is highly soluble in the K-BlueMax solution. Optical density is then readily measured using a Molecular Devices Spectramax Plus colorimetric plate reader at 650
as §1

[7] = test system: FKBP52, FKBP25 and FKBP12; assay: Affinity chromatography on Compound 2 matrix (SDS-PAGE); type: binding, human; conditions: protein retained on compound beads vs blank beads
[8] = test system: Ca2+ channels in cultured rat hippocampal neurons; assay: Whole-cell patch clamp recording of Ca2+ currents in hippocampal neurons; type: cell-based; conditions: 10 μM internal
Method: as §4

[9] = test system: Human CD4+ T cells; assay: Immunosuppression assay: IL-2 stimulated CD4+ T-cell proliferation; type: cell-based; conditions: up to 1 μM
Method: Human CD4^+ T cells were purified by negative selection from peripheral blood lymphocytes using RosetteSep as per manufacture's instructions (StemCell Technologies, Inc. Vancouver, British Columbia). Tosyl-activated magnetic microspheres (Dynal, Great Neck, N.Y.) were coated with anti-CD3 Ab (1 μg/10^7 microspheres), and anti-CD28Ab ([…]) as described in Blair et al. J. Immunol., 160:12, 1998. […] Protein-coated microspheres were added to purified CD4+T cells (2×10^6cells/mL, ratio 1 bead: 1 cell) and activated for 72 hours in RPMI, 10% fetal calf serum, 2 mM glutamine media. Cells were harvested, washed, and cultured overnight in fresh media and re-stimulated with IL-2 as described in Bennett et al., J. Immunol. 170:711, 2003. […] Seventy-two hours after culture re-stimulation, plates were pulsed with 1 μCi/well tritiated thymidine and incubated for a 6-16 hour period.

[10] = test system: CACNB1; assay: Affinity chromatography on Compound 2 matrix (SDS-PAGE); type: binding, human; conditions: protein retained on compound beads vs blank beads
Description: as §3

[11] = test system: His6-tagged FKBP52; assay: [3H]-FK506 binding on Ni-chelated FLASH plate; design: species or system human; conditions: for binding selectivity for FKBP52 versus FKBP12, higher than that of rapamycin: relative to rapamycin
Method: as §2

T1 sequence (P30416 whole entry): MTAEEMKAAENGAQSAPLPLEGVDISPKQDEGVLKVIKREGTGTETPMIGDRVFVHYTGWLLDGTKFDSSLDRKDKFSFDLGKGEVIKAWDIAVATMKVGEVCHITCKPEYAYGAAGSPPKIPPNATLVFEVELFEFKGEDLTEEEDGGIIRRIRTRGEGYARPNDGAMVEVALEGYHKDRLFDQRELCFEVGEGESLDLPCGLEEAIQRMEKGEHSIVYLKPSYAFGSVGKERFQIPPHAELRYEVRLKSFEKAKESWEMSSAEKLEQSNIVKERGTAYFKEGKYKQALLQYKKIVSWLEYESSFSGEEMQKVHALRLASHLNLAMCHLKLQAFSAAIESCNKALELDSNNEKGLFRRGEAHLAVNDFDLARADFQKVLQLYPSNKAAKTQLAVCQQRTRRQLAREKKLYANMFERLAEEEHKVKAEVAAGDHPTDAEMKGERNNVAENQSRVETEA
T1 sequence (Q8R3Z5 1-479 isoform Q8R3Z5-3): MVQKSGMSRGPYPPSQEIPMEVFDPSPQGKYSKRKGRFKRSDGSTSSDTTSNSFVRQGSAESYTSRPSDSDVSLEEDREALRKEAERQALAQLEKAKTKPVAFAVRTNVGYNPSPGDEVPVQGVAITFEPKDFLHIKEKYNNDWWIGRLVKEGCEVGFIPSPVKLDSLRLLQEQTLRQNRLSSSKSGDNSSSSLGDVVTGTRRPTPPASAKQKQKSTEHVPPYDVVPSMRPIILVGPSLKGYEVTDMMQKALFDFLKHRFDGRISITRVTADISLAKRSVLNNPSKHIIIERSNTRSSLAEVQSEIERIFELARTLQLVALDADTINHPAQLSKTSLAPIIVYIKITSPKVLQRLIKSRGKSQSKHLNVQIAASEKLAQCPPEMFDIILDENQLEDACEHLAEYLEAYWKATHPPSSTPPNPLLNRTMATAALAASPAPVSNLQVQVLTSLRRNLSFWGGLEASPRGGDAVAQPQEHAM
T2 sequence (Q02641 1-547 limits assumed): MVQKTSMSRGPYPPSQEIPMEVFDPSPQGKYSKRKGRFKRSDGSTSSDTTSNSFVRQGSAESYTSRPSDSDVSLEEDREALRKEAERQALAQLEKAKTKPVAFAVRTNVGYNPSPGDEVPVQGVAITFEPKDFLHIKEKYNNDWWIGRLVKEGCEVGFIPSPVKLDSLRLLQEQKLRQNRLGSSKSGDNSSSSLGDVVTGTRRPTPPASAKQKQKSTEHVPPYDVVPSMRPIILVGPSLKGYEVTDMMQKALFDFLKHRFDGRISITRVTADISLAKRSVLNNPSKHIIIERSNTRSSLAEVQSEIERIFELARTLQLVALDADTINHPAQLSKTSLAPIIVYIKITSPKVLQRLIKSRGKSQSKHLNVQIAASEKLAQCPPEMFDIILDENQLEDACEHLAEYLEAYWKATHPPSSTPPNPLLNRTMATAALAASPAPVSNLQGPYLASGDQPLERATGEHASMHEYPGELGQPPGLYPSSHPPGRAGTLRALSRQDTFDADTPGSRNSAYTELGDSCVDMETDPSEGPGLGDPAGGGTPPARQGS
His6-tagged FKBP12, sequence (P62942 whole entry): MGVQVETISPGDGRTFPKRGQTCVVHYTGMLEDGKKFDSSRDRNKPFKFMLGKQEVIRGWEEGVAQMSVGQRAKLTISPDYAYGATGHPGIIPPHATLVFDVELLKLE

SMILES | neurite outgrowth in cortical neurons [1] | Kd [2] [nM] | Ca2+ channel β1 subunit co-immunoprecipitated with FKBP52 ([3]; 5 μM) | Ca2+ channel β1 subunit co-immunoprecipitated with FKBP52 ([3]; 50 μM) | protein fluorescent quenching [4] | Ca2+ current density ([5]; 5 μM in the bath for 2 hrs) | decrease of Ca2+ current density vs vehicle ([5]; 5 μM in the bath for 2 hrs) [%] | whole-cell Ca2+ currents, short bath application ([5]; 10 min application) | reduction of Ca2+ current ([5]; internal application 10 μM, within 10 min, cells responding to BAY-K5552 (L-type)) | reduction of Ca2+ current ([5]; internal application, cells responding to ωCTX MVIIA (N-type)) | neuronal survival, neurofilament ELISA [6] | binding to FKBP52, FKBP25 and FKBP12 [7] | inhibition of Ca2+ current ([8]; N-type Ca2+ channels blocked, after 10 min) | inhibition of the remaining Ca2+ current ([8]; both N- and L-type Ca2+ channels blocked) | inhibition of IL-2 stimulated CD4+ T-cell proliferation [9] | binding to CACNB1 [10] | Kd(FKBP12)/Kd(FKBP52) [11] | binding selectivity for FKBP52 versus FKBP12, higher than that of rapamycin [11] [fold] | binding selectivity for FKBP52 versus FKBP12, higher than that of rapamycin ([11]; listed as rapamycin analogue II)
CO[C@H]1C[C@@H]2CC[C@@H](C)[C@@](O)(O2)C(=O)C(=O)N2CCCCC2C(=O)O[C@H]([C@H](C)C[C@@H]2CC[C@@H](O)[C@H](OC)C2)CC(=O)[C@H](C)/C=C(\C)[C@@H](O)[C@@H](OC)C(=O)[C@H](C)C[C@H](C)C2C=C[C@H](/C=C/1C)ON2c1ccccc1 (stereo partly shown) [Rapamycin analogue I, 9,27-dihydroxy-3-{2-[4-hydroxy-3-methoxycyclohexyl]-1-methylethyl}-10,21-dimethoxy-6,8,12,14,20,26-hexamethyl-37-phenyl-4,9,10,12,13,14,15,18,21,22,23,24,25,26,27,32,33,34,34a-nonadecahydro-3H-23,27-epoxy-18,15-(epoxyimino)pyrido[2,1-c][1,4]oxazacyclohentriacontine-1,5,11,28,29(6H, 31H)-pentone] | promote neurite outgrowth | 4.7 ± 0.4 | large amount | reduced the amount of precipitated β1 subunit | linear dose response curve | 3.2+/−0.3 pA/pF | 49 | not affected | 46+/−1.8% | No significant current reduction | promote neuronal survival |  |  |  |  |  |  |  | 
CO[C@H]1C[C@@H]2CC[C@@H](C)[C@@](O)(O2)C(=O)C(=O)N2CCCCC2C(=O)O[C@H]([C@H](C)C[C@@H]2CC[C@@H](O)[C@H](OC)C2)CC(=O)[C@H](C)/C=C(\C)[C@@H](O)[C@@H](OC)C(=O)[C@H](C)C[C@H](C)C2CC[C@H](/C=C/1C)ON2c1ccccc1 (stereo partly shown) [Rapamycin analogue II, 9,27-dihydroxy-3-{2-[4-hydroxy-3-methoxycyclohexyl]-1-methylethyl}-10,21-dimethoxy-6,8,12,14,20,26-hexamethyl-37-phenyl-4,9,10,12,13,14,15,16,17,18,21,22,23,24,25,26,27,32,33,34,34a-henicosahydro-3H-23,27-epoxy-18,15-(epoxyimino)pyrido[2,1-c][1,4]oxazacyclohentriacontine-1,5,11,28,29(6H, 31H)-pentone] |  |  |  |  |  |  |  |  |  |  |  | binds | 74.5+/−8.8 | 21.3+/−4.4% | no detectable inhibition | binds | 229 | 687 | at least 600 fold
